Experimental data: PubChem BioAssay (NCI)
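Five concentrations, 48 hours, 96-well plates. The concentration for 50% growth inhibition is given as GI50. Definition used: TGI = concentration required for complete inhibition of growth.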

Legend:
Assay in all cases: DTP human tumour cell line panel, 48 h
[1] = system: UO-31 renal
[2] = system: SNB-19 CNS
[3] = system: CAKI-1 renal
[4] = system: IGROV1 ovarian
[5] = system: SF-268 CNS
[6] = system: SK-MEL-28 melanoma
[7] = system: HL-60(TB) leukemia
[8] = system: HCT-116 colon
[9] = system: NCI-H460 lung
[10] = system: UACC-62 melanoma

| Compound | GI50 [1] [µM] | TGI [1] [µM] | GI50 [2] [µM] | TGI [2] [µM] | GI50 [3] [µM] | TGI [3] [µM] | GI50 [4] [µM] | TGI [4] [µM] | GI50 [5] [µM] | TGI [5] [µM] | GI50 [6] [µM] | TGI [6] [µM] | GI50 [7] [µM] | TGI [7] [µM] | GI50 [8] [µM] | TGI [8] [µM] | GI50 [9] [µM] | TGI [9] [µM] | GI50 [10] [µM] | TGI [10] [µM] |
| --- | --- | --- | --- | --- | --- | --- | --- | --- | --- | --- | --- | --- | --- | --- | --- | --- | --- | --- | --- | --- |
| O=c1c(Br)ccc(Br)cc1Br | 1.51 | 2.95 | 11.7 | 25.2 | 1.7 | 3.32 | 2.4 | 5.64 | 2.62 | 6.57 | 2.55 | 5.83 | 0.662 | 2.67 | 1.51 | 2.88 | 4.88 | 11.5 | 1.75 | 3.27 |
| COc1ccc2nc3c(cc2c1)C(=O)CC(C(F)(F)F)C3 (centres undefined) | 1.36 | > 100 | 3.61 | > 100 | 0.639 | > 100 | 0.792 | > 100 | 34.6 | > 100 | 1.26 | > 100 | 0.333 | > 46.8 | 0.142 | > 100 | 1.87 | > 100 | 0.602 | > 100 |
| O=c1c2ccc(Br)cc2nc(-c2ccccc2)n1NC1OC(CO)C(O)C(O)C1O (centres undefined) | – | > 100 | – | > 100 | – | > 100 | – | > 100 | – | > 100 | – | > 100 | – | > 100 | – | > 100 | – | > 100 | – | > 100 |
| COc1cc(-c2nc3cc(Cl)c(Cl)cc3[nH]2)ccc1OCC(=O)N=Nc1c(O)[nH]c2ccccc12 | > 52.6 | > 100 | 0.657 | 5.35 | 1.45 | 2.94 | 0.313 | 1.01 | 0.566 | 3.06 | 1.38 | 2.68 | 0.392 | 2.22 | 0.445 | 1.55 | 0.42 | 1.63 | 1.41 | 2.75 |
| COc1cc(Nc2nccc(-c3cnn4ncccc34)n2)cc(OC)c1 | 0.055 | 0.196 | 0.0836 | > 25 | 0.0703 | 4.02 | 0.0916 | > 23.9 | 0.0697 | 0.48 | 0.0726 | 0.38 | 0.0362 | 0.12 | 0.0439 | > 14.9 | 0.0539 | 2.93 | 0.0532 | 0.223 |
| Cc1cnc2n(c1=O)Cc1ccccc1CO2 | 18.2 | 44.5 | 21.7 | 61.6 | 16.9 | 32.5 | 14.4 | 32.5 | 20.3 | 67.6 | 20.9 | 45.1 | 15.5 | 35.1 | 17.2 | 43.8 | 17.7 | 40.2 | 14.7 | 28.7 |
| COc1ccc(S(=O)(=O)Nc2c(/C=C\c3cc(OC)c(OC)c(OC)c3)ccc(OC)c2O)cc1OC | 0.864 | > 100 | 0.506 | > 100 | 1.01 | > 100 | 0.358 | > 100 | 1.29 | > 100 | 1.74 | > 100 | 0.338 | > 100 | 0.171 | > 100 | 0.283 | > 100 | 0.053 | > 100 |
| CCC1(O)CC(c2ccccc2)N(C)C(c2ccccc2)C1 (centres undefined) | – | > 100 | – | > 100 | – | > 100 | – | > 100 | – | > 100 | – | > 100 | – | > 100 | – | > 100 | – | > 100 | – | > 100 |
| O=C(Nc1ccc(-n2cc(-c3ccncc3)c(-c3ccc(Cl)c(O)c3)n2)cc1)c1ccc(Cl)c(C(F)(F)F)c1 | 0.684 | 2.42 | 4.16 | > 100 | 1.7 | 3.8 | 3.11 | > 28.4 | 2.68 | > 31.8 | 1.18 | 3.6 | 1.19 | – | 0.918 | 2.45 | 1.43 | 11.1 | 2.21 | 7.6 |
| Cc1cccc(C)c1NC(=O)/C(CC(=O)CC(c1ccccc1)c1c(O)c2ccccc2oc1=O)=N/O (centres undefined) | – | > 100 | – | > 100 | – | > 100 | – | > 100 | – | > 100 | – | > 100 | – | > 100 | – | > 100 | – | > 100 | – | > 100 |
| C[C@]12CC[C@H](O)CC1CCC[C@@H]2O (some centres undefined) | – | > 100 | – | > 100 | – | > 100 | – | > 100 | – | > 100 | – | > 100 | – | > 100 | – | > 100 | – | > 100 | – | > 100 |
| Nc1c(S(=O)(=O)O)cc2c(c1Cl)C(=O)c1ccccc1C2=O | > 100 | > 100 | > 100 | > 100 | > 100 | > 100 | > 100 | > 100 | > 100 | > 100 | > 100 | > 100 | > 100 | > 100 | > 100 | > 100 | > 100 | > 100 | > 100 | > 100 |
| OCC1C2C=CC(O2)[C@H]1CO (some centres undefined) | – | > 100 | – | > 100 | – | > 100 | – | > 100 | – | > 100 | – | > 100 | – | > 100 | – | > 100 | – | > 100 | – | > 100 |
| CN(CC(=O)O)Cc1c[nH]c2ccccc12 | – | > 100 | – | > 100 | – | > 100 | – | > 100 | – | > 100 | – | > 100 | – | > 100 | – | > 100 | – | > 100 | – | > 100 |
| N=C(N)c1ccc(-c2ccc(-c3ccccc3)o2)o1 | 1.54 | 3.13 | 3.01 | 10.1 | 3.4 | 14.2 | 2.89 | 11.8 | 2.98 | 12.3 | 1.9 | 4.41 | 2.18 | 5.2 | 2.06 | 5.29 | 2.45 | 5.82 | 1.93 | 3.82 |
